Experimental data taken from BigSolDB 2.1.

COC(=O)[C@@H](N)CC(C)C.Cl
solubility (mole fraction)
Conditions | 283.15 K | 288.15 K | 293.15 K | 298.15 K | 303.15 K | 308.15 K | 313.15 K | 318.15 K | 323.15 K | 328.15 K
in 1,4-dioxane | – | 0.0539 | 0.0579 | 0.0621 | 0.0715 | 0.0799 | 0.0918 | 0.11 | 0.127 | 0.158
in 2-butanone | 0.00114 | 0.00125 | 0.00141 | 0.00158 | 0.00186 | 0.00238 | 0.00297 | 0.00388 | 0.00524 | –
in acetone | 0.00343 | 0.00389 | 0.00451 | 0.00562 | 0.00661 | 0.00806 | 0.01 | 0.0129 | 0.0172 | –
in acetonitrile | 0.00109 | 0.00154 | 0.00205 | 0.00313 | 0.00401 | 0.0051 | 0.00776 | 0.011 | 0.0162 | –
in dimethyl carbonate | 0.000287 | 0.000319 | 0.00038 | 0.000478 | 0.000629 | 0.000924 | 0.00127 | 0.00167 | 0.00213 | –
in ethyl acetate | 0.000226 | 0.000237 | 0.000277 | 0.000342 | 0.000421 | 0.000593 | 0.000729 | 0.000892 | 0.00124 | –
in isopropyl acetate | 0.000136 | 0.000152 | 0.000178 | 0.000219 | 0.000246 | 0.00029 | 0.000358 | 0.000429 | 0.000561 | –
in methyl acetate | 0.000388 | 0.000472 | 0.000629 | 0.000834 | 0.00105 | 0.00138 | 0.0019 | 0.00244 | 0.00347 | –
in n-butanol | 0.0885 | 0.0916 | 0.0983 | 0.109 | 0.123 | 0.139 | 0.155 | 0.171 | 0.196 | –
in n-hexane | 0.000296 | 0.000331 | 0.000371 | 0.000433 | 0.000505 | 0.00063 | 0.000782 | 0.000983 | 0.0012 | –
in n-pentanol | 0.0571 | 0.062 | 0.0696 | 0.0787 | 0.0917 | 0.104 | 0.121 | 0.137 | 0.156 | –
in n-propyl acetate | 0.00123 | 0.00129 | 0.00145 | 0.00189 | 0.00234 | 0.00292 | 0.0036 | 0.00455 | 0.00541 | –
